{"source": "ChEMBL document CHEMBL1201862", "about": "“PubChem BioAssay data set” (2004)", "key": {"[1]": {"target": "T1, High affinity choline transporter 1 (Homo sapiens, UniProt Q9GZV3)", "T1 sequence (Q9GZV3 whole entry)": "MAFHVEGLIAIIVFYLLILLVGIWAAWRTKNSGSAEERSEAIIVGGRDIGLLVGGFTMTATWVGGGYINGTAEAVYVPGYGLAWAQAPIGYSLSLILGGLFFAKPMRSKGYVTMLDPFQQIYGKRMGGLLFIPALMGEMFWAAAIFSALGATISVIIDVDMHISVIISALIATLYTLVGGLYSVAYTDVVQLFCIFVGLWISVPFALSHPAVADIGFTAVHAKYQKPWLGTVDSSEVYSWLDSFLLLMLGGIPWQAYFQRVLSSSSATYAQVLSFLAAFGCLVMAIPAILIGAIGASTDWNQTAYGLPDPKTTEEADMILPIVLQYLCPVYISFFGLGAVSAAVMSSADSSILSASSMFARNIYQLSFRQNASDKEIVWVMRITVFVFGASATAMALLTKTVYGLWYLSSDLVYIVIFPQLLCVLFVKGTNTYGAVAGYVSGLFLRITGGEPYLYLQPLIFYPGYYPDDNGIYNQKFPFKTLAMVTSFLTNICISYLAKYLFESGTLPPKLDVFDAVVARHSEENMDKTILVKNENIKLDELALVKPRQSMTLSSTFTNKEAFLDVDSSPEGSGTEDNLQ", "test": "CHT inhibitors, dose response, cell-based, 5-point CRC, membrane potential dye (AID 504840)", "type": "functional"}, "[2]": {"target": "T2, Polyadenylate-binding protein 1 (Homo sapiens, UniProt P11940)", "T2 sequence (P11940 whole entry)": "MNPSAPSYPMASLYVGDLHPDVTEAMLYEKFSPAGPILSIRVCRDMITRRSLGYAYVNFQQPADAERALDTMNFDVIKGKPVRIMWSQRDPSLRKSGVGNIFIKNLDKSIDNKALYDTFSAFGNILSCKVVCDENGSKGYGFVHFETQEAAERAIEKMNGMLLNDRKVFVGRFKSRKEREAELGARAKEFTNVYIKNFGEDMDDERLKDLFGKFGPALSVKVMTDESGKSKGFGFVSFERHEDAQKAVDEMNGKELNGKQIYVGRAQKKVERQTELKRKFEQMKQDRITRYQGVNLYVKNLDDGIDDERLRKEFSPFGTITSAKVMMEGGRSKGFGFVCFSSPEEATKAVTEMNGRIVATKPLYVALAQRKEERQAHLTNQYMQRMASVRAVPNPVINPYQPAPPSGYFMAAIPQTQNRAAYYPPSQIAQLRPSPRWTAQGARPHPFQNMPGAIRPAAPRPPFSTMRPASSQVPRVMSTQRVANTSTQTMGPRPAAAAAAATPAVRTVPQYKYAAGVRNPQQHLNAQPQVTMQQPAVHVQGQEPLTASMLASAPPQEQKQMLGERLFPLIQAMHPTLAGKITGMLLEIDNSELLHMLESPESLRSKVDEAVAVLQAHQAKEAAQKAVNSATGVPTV", "test": "PABP1 MLLE–PAM2 binding inhibitor potency, dose response, biochemical, fluorescence polarization, FITC-PAM2 peptide (AID 602259)", "type": "functional", "details": "read-out: IC50_Mean"}, "[3]": {"target": "T2, Polyadenylate-binding protein 1", "test": "PABP1 MLLE–PAM2 interaction inhibitors, dose response, miRNA deadenylation inhibitor project, biochemical, fluorescence polarization, Cy5-PAM2 peptide, secondary (AID 602260)", "type": "functional", "details": "read-out: IC50_Mean"}, "[4]": {"test": "microbe, parasite or virus in culture", "type": "functional", "details": "Mycobacterium tuberculosis"}, "H9c2": {"system": "H9c2", "test": "cells", "type": "functional, cell-based", "details": "Rattus norvegicus, H9c2, Myocardium"}, "[5]": {"test": "HEp-2 cell cytotoxicity, dose response, cytotoxicity control for RSV inhibitor project, HTS (AID 2410)", "type": "functional", "details": "human respiratory syncytial virus"}, "Streptococcus": {"system": "Streptococcus", "test": "Group A Streptococcus viability loss, dose response, counter-screen for streptokinase expression inhibitor project, luminescence, BacTiterGlo (AID 1915);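 also: potency for reduction of bacterial viability or growth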", "type": "functional, organism-based"}, "[6]": {"system": "Streptococcus sp. 'group A'", "test": "growth inhibition of control SK(-) GAS strain, dose response, counter-screen for streptokinase expression inhibitor project, luminescence, kanamycin, BacTiterGlo, confirmation (AID 1900)", "type": "functional, organism-based"}, "[7]": {"test": "LGR2 antagonists, dose response, cell-based, HEK293, CRE-luciferase reporter, cherry pick, set 2 (AID 743343);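 also: transfected cells were stimulated with diluted bursicon conditioned medium after compound addition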", "type": "functional"}, "[8]": {"test": "MC4R antagonists, dose response, counter-screen for LGR2 antagonist project, cell-based, plate reader, cherry pick (AID 743444);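 also: transfected HEK 293 cells stimulated with alpha-MSH peptide; potency of inhibitors of the alpha-MSH evoked signal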", "type": "functional"}, "[9]": {"target": "FAD-linked sulfhydryl oxidase ALR (Homo sapiens, UniProt P55789)", "sequence (P55789 whole entry)": "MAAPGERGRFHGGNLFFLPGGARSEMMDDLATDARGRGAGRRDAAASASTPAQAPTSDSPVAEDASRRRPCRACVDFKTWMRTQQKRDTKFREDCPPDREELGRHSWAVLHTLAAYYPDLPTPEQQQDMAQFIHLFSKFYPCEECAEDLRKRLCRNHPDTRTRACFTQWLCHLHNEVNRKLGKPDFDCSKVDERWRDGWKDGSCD", "test": "inhibitors of human ALR sulfhydryl oxidase, dose response, biochemical, H2O2 detection, luminescence, cherry-pick (AID 493248)"}, "Genome polyprotein": {"target": "Genome polyprotein (dengue virus type 2, UniProt P29990)", "sequence (P29990 2492-3391 limits assumed)": "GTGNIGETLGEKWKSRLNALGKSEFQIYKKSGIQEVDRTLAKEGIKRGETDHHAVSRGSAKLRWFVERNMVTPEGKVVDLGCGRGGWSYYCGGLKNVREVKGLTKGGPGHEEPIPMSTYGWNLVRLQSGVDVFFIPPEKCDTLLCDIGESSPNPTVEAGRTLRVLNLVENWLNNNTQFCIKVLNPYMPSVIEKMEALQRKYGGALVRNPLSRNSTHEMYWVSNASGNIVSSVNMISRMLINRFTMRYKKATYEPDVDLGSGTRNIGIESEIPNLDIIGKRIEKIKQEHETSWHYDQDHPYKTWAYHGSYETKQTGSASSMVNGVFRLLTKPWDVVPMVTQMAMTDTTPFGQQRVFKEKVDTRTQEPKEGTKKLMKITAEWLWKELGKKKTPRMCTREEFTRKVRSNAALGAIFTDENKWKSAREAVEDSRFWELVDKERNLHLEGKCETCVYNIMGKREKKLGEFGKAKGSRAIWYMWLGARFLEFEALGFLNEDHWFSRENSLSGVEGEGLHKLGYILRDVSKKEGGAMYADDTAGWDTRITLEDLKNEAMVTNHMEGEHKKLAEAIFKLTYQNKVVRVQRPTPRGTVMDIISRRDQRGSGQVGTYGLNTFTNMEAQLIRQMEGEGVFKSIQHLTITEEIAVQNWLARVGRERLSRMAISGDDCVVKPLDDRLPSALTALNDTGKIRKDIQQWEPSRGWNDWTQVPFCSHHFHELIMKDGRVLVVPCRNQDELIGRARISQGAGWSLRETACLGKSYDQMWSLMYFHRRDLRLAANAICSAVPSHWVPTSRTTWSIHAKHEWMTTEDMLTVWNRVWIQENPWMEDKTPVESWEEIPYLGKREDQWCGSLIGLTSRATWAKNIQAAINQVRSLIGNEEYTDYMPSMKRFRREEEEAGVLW", "test": "Dengue-2 NS5 methyltransferase inhibitors, primary screen, biochemical, confirmation dose response (AID 588689)", "type": "functional"}, "[10]": {"test": "growth suppression of PTEN-null colon cells, dose response, cell-based, HCT116 PTEN knockout (AID 1047);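 also: cells exposed to compound for 60 hours before readout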", "type": "functional"}, "[11]": {"test": "growth suppression of beta-catenin-knockout colon cells, dose response, cell-based, HCT116, human colon tumor (AID 1045);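 also: cells exposed to compound for 60 hours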", "type": "functional"}, "[12]": {"target": "Glucose-6-phosphate 1-dehydrogenase (Homo sapiens, UniProt P11413)", "sequence (P11413 whole entry)": "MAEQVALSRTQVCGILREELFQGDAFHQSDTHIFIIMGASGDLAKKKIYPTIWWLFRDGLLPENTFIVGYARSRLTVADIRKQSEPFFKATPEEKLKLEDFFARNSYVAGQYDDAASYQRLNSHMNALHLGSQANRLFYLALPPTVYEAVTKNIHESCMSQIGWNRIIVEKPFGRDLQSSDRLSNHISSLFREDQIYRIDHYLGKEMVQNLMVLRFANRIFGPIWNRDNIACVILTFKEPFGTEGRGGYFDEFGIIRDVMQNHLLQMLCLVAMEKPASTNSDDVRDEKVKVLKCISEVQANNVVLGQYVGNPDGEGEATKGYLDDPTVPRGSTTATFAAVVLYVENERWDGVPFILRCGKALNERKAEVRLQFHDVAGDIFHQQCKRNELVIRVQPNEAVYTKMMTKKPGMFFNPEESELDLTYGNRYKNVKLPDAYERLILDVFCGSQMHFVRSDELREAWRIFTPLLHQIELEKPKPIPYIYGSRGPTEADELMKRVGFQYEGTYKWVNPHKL", "test": "human G6PD enzyme inhibitors, dose response, selectivity assay for P. falciparum G6PD inhibitor project, biochemical, fluorescence (AID 504792)", "type": "functional"}, "Vero": {"system": "Vero", "test": "cells", "type": "functional", "details": "Chlorocebus sabaeus"}, "[13]": {"target": "T3, Rac GTPase-activating protein 1 (Homo sapiens, UniProt Q9H0H5)", "T3 sequence (Q9H0H5 whole entry)": "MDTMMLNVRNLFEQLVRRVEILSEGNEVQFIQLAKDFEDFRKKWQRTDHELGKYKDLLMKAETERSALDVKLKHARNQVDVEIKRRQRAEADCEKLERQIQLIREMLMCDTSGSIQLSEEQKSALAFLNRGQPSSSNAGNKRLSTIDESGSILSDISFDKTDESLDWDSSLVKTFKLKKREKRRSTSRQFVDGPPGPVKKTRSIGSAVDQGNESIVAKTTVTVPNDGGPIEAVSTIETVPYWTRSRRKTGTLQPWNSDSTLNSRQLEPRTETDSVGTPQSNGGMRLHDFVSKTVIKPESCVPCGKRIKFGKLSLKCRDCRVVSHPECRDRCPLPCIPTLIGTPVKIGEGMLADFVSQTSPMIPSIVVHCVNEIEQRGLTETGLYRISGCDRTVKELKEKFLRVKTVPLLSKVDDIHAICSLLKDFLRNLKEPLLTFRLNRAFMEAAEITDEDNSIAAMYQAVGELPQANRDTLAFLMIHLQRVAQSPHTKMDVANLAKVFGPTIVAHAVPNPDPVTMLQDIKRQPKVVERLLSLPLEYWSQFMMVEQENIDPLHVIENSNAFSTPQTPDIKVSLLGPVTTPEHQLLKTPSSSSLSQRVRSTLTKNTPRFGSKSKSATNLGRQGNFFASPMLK", "test": "MgcRacGAP GTPase-activating activity inhibitors, confirmation, biochemical, ADP Hunter fluorescence, primary and confirmatory (AID 624330)", "type": "functional"}, "Caspase-6": {"target": "T4, Caspase-6 (Homo sapiens, UniProt P55212)", "T4 sequence (P55212 whole entry)": "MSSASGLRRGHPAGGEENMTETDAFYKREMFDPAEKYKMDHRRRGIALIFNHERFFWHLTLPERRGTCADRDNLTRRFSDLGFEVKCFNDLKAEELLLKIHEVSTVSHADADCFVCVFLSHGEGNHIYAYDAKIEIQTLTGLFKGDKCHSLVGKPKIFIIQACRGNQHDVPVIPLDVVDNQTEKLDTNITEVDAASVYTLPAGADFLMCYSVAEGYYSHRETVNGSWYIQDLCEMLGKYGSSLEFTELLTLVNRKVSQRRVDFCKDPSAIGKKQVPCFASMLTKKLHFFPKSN", "test": "human caspase-6 inhibitors, dose response, biochemical, VEID-R110 fluorescence, cherry-pick (AID 720632)"}}, "note": "Activity calls are given as the source filed them.", "data": [{"smiles": "Cc1ccccc1/C=C/C(=O)NCC(=O)N1CCC(N(C)C2CCCCC2C)CC1", "note": "(centres undefined)", "values": [{"measurement": "IC50", "setting": "[1]", "result": "14.5 µM (active)"}]}, {"smiles": "O=C(O)c1cccc(S(=O)(=O)Nc2ccc3c(c2)OCO3)c1", "values": [{"measurement": "IC50", "setting": "[2]", "result": "> 66 µM (inactive)"}, {"measurement": "IC50", "setting": "[3]", "result": "> 66 µM (inactive)"}]}, {"smiles": "Cc1cc(C)c2ccc(NN)nc2c1O", "values": [{"measurement": "CC50", "setting": "[4]", "result": "> 40 µM (active)"}, {"measurement": "IC50", "setting": "H9c2", "result": "5.06 µM (active)"}, {"measurement": "CC50", "setting": "[5]", "result": "36 µM (active)"}, {"measurement": "EC50", "setting": "Streptococcus", "result": "6.5 µM (active)"}, {"measurement": "EC50", "setting": "[6]", "result": "3.27 µM (active)"}]}, {"smiles": "CNC(=O)Oc1cccc(-c2cn3cc(Cl)ccc3n2)c1", "values": [{"measurement": "AC50", "setting": "[7]", "result": "15.8 µM (active)"}, {"measurement": "AC50", "setting": "[8]", "result": "18.6 µM (active)"}]}, {"smiles": "Cc1cc(Nc2[nH]nc(N)c2C#N)ccc1F", "values": [{"measurement": "AC50", "setting": "[9]", "result": "2.22 µM (active)"}]}, {"smiles": "CC1CCCCC1NC(=O)c1ccc(S(=O)(=O)NCC2CCCO2)cc1", "note": "(centres undefined)", "values": [{"measurement": "IC50", "setting": "[1]", "result": "12.3 µM (active)"}]}, {"smiles": "COC(=O)c1c(C)c2c(C)cc3ccccn3c-2c1C(=O)OC", "values": [{"measurement": "IC50", "setting": "Genome polyprotein", "result": "> 100 µM (active)"}]}, {"smiles": "CSc1ccc(C2C(C#N)=C(N)Oc3cc4c(cc32)OCO4)cc1", "note": "(centres undefined)", "values": [{"measurement": "EC50", "setting": "[10]", "result": "6.59 µM (active)"}, {"measurement": "EC50", "setting": "[11]", "result": "6.05 µM (active)"}]}, {"smiles": "[O-]/[N+](=C/c1cccnc1)c1ccc(Br)cc1", "values": [{"measurement": "IC50", "setting": "[12]", "result": "28.2 µM (inactive)"}]}, {"smiles": "Fc1cc(F)c(F)c(SCCc2ccncc2)c1F", "values": [{"measurement": "EC50", "setting": "[10]", "result": "29.7 µM (active)"}, {"measurement": "EC50", "setting": "[11]", "result": "30.7 µM (active)"}]}, {"smiles": "Nc1ccc(-c2ccc(N)c(C(=O)O)c2)cc1C(=O)O", "values": [{"measurement": "AC50", "setting": "[9]", "result": "2.38 µM (active)"}]}, {"smiles": "CC(=O)Nc1ccc(C(=O)CSc2ncn(-c3ccccc3)n2)cc1", "values": [{"measurement": "IC50", "setting": "[2]", "result": "> 66 µM (inactive)"}, {"measurement": "IC50", "setting": "[3]", "result": "> 66 µM (inactive)"}]}, {"smiles": "Cc1ccc(S(=O)(=O)SC/C=C/CSS(=O)(=O)c2ccc(C)cc2)cc1", "values": [{"measurement": "IC50", "setting": "[12]", "result": "59.5 µM (inactive)"}]}, {"smiles": "CN(C)CCCN(C(=O)C1=COCCO1)c1nc2ccc(Br)cc2s1", "values": [{"measurement": "CC50", "setting": "Vero", "result": "> 25 µM (active)"}]}, {"smiles": "Sc1ncc2cnccn12", "values": [{"measurement": "IC50", "setting": "[2]", "result": "> 66 µM (inactive)"}, {"measurement": "IC50", "setting": "[13]", "result": "52.3 µM (active)"}, {"measurement": "IC50", "setting": "[3]", "result": "> 66 µM (inactive)"}]}, {"smiles": "COc1cc(/C=N/Nc2ccc(Cl)nn2)cc(OC)c1O", "values": [{"measurement": "AC50", "setting": "[9]", "result": "0.005 µM (active)"}]}, {"smiles": "CCCCNc1nc(NCc2ccccc2)nc2ccccc12", "values": [{"measurement": "AC50", "setting": "Caspase-6", "result": "15.6 µM (active)"}]}, {"smiles": "COc1c(OC(C)=O)ccc(/C=N\\NC(=O)c2ccc(Br)cc2)c1[N+](=O)[O-]", "values": [{"measurement": "IC50", "setting": "Genome polyprotein", "result": "96.5 µM (active)"}]}]}
